Article PMC12364115, “High-throughput virtual screening, identification and in vitro biological evaluation of novel inhibitors of PLK1 and NRP1” (Journal of Enzyme Inhibition and Medicinal Chemistry, 2025)

Key:
PLK1 = biological target: T1, PLK1 (Homo sapiens, UniProt P53350); experiment: PLK1 inhibition assay; assay type: biochemical
T1 construct: purchased Abcam (Cambridge, MA, USA)
Description: The method was as previously described. Briefly, the enzyme reaction mixture containing different doses of compounds was incubated for 90 min at room temperature. Then the mixture was transferred to a Neutravidin-coated 384-well plate and incubated for 60 min at room temperature. Then the wells were incubated with 50 μL of the antibody mixture for 1 h. The bound europium was liberated using 50 μL of Enhancement Solution.

NRP1 = biological target: T2, NRP1 (Homo sapiens, UniProt O14786); experiment: NRP1 inhibition assay (125I-VEGF-A165 binding, HUVEC cells transfected with NRP1)
T2 construct: expressed in transfected cells; host or cells: HUVEC
T2 sequence (O14786 22-923): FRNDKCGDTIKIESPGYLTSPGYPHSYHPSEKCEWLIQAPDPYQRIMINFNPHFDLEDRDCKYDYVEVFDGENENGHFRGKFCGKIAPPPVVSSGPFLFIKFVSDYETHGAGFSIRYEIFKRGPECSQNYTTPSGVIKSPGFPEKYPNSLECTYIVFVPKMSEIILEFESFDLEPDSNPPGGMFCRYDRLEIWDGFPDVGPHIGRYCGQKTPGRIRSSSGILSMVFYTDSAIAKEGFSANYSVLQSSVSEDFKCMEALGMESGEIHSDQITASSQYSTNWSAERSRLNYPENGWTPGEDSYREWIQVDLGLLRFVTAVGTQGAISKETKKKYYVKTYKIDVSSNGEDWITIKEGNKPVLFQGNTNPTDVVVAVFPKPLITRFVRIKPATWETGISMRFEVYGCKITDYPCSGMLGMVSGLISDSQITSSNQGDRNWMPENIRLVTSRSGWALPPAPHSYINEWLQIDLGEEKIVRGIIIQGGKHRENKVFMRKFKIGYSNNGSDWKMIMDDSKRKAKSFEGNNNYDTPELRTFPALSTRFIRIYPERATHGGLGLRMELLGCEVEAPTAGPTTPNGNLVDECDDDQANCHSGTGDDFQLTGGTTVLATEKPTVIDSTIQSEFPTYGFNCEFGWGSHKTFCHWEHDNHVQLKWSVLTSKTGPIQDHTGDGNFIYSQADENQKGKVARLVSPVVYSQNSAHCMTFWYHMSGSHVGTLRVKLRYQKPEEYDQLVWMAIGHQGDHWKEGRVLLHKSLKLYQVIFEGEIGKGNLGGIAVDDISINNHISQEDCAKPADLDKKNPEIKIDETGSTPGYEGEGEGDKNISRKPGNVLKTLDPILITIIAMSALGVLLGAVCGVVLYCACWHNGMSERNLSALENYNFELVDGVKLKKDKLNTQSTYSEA
Description: The method was as previously described. Briefly, HUVEC cells transfected with NRP1 were added to a 96-well plate and after growing to confluence, and the compounds were added to each well at different concentrations. Then, the ^125I-VEGF-A165 (0.1 nM) was added to measure non-specific binding. Data curves were plotted and half maximal inhibitory concentrations (IC50) were derived for the selected compounds using Prism 6.0 software.

PLK2 = biological target: T3, PLK2 (Homo sapiens, UniProt Q9NYY3); experiment: In vitro selectivity assay PLK2; assay type: biochemical
T3 construct: ICE Bioscience Inc (Beijing, China) (performed the assay)
T3 sequence (Q9NYY3 whole entry, species assumed): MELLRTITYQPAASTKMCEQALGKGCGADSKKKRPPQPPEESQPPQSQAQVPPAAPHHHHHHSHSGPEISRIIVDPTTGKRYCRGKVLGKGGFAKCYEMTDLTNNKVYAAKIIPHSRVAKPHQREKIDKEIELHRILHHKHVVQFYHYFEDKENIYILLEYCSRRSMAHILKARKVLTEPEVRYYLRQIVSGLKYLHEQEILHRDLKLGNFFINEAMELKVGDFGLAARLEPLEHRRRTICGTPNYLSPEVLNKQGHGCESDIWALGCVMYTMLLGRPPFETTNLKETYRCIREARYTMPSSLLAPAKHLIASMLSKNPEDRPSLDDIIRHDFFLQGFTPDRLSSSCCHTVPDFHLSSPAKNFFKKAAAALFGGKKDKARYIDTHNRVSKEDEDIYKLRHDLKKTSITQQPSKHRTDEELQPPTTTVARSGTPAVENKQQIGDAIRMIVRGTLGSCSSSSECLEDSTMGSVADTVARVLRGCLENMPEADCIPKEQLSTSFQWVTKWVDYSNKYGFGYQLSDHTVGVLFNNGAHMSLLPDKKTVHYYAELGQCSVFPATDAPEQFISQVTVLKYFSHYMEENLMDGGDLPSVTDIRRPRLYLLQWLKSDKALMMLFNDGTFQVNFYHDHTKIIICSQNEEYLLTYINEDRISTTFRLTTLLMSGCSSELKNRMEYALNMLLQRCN
Description: (§1) To assess the selectivity of PLN-5, we systematically determined its inhibitory activity against PLK2, PLK3, PLK4 (homologues of PLK1) and […]. This assay was performed by ICE Bioscience Inc (Beijing, China).

PLK3 = biological target: T4, PLK3 (Homo sapiens, UniProt Q9H4B4); experiment: In vitro selectivity assay PLK3; assay type: biochemical; settings: n = 3
T4 construct: ICE Bioscience Inc (Beijing, China) (performed the assay)
T4 sequence (Q9H4B4 whole entry, species assumed): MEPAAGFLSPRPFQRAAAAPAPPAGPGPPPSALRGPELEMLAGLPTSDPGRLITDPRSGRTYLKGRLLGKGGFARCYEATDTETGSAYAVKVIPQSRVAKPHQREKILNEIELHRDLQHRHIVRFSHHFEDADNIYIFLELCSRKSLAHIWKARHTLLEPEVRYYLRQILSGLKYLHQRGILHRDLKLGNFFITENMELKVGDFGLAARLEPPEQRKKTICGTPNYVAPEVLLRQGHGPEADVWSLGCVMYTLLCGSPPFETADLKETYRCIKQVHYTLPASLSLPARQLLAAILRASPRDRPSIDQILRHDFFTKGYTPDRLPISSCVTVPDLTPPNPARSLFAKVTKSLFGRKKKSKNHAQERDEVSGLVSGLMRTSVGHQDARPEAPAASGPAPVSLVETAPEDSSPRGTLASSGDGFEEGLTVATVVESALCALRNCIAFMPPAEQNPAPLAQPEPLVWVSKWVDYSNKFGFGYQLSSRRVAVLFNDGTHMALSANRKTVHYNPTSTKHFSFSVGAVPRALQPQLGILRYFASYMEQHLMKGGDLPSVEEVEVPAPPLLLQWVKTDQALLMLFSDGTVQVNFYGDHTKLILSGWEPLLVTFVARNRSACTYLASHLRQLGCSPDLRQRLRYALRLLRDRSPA
Description: as §1

PLK4 = biological target: T5, PLK4 (Homo sapiens, UniProt O00444); experiment: In vitro selectivity assay PLK4; assay type: biochemical
T5 construct: ICE Bioscience Inc (Beijing, China) (performed the assay)
T5 sequence (O00444 1-970): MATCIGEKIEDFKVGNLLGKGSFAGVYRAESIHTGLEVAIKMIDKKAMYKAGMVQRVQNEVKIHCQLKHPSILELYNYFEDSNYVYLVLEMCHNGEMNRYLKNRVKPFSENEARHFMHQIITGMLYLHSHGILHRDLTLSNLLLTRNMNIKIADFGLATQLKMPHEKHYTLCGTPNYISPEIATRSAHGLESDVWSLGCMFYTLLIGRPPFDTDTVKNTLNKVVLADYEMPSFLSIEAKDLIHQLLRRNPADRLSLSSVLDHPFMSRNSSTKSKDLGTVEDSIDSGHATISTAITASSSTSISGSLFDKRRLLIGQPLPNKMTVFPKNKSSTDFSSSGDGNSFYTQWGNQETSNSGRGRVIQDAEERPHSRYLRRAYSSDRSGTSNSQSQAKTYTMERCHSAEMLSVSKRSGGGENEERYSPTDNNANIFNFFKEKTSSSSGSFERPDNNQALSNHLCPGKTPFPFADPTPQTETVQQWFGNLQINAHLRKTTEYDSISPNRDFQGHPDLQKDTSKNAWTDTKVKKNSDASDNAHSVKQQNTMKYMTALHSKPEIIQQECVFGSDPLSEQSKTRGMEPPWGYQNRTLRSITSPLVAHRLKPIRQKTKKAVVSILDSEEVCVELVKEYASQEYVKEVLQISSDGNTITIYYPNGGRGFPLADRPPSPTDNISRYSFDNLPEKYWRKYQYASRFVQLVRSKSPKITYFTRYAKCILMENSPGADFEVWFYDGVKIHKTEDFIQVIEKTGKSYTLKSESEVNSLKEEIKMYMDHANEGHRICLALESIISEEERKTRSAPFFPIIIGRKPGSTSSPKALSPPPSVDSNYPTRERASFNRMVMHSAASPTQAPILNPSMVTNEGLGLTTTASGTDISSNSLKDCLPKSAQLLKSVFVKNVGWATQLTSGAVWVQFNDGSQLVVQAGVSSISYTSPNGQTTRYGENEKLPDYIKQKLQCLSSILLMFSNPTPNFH
Description: as §1

NRP2 = biological target: T6, NRP2 (Homo sapiens, UniProt O60462); experiment: In vitro selectivity assay NRP2; assay type: biochemical; settings: n = 3
T6 construct: ICE Bioscience Inc (Beijing, China) (performed the assay)
T6 sequence (O60462 21-931): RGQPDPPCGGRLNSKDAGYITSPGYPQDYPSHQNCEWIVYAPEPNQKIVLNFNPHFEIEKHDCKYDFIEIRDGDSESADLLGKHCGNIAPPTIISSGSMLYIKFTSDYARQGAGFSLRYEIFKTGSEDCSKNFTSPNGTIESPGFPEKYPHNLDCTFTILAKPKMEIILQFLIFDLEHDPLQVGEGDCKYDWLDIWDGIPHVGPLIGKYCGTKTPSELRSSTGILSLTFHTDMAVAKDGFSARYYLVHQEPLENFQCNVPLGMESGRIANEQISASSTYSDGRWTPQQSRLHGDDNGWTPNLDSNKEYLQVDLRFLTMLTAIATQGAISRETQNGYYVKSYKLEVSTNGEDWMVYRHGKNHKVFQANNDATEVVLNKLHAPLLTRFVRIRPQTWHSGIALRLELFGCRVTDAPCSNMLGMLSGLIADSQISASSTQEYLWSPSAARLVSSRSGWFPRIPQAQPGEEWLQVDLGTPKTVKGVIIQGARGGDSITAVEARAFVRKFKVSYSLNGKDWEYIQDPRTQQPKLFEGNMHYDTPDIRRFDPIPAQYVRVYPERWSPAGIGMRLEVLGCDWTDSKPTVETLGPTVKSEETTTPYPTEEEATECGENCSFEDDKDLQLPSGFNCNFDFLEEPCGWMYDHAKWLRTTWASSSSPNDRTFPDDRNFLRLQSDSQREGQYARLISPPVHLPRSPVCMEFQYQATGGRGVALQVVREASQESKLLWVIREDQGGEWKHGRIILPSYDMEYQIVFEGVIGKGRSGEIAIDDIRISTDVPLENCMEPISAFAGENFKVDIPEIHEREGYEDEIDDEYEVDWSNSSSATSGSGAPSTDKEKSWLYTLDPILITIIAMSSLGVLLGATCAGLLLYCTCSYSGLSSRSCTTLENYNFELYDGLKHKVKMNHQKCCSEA
Description: as §1

NCI-H460 cells = experiment: MTT assay NCI-H460; assay type: cell-based, human
Description: (§2) The lung cancer cells NCI-H460 (large cell lung carcinoma), A549 (adenocarcinoma), A427 (adenocarcinoma) and normal lung cells BEAS-2B (human normal lung epithelial cells) were purchased from The American Type Culture Collection (ATCC) (Manassas, VA, USA). The cells were cultured with Roswell Park Memorial Institute (RPMI) ‐1640 medium. The temperature of the cell culture was maintained at 37 °C. Hit compounds were obtained commercially from WuXi AppTec (PLN-1, Lot NO: P112561-P1; PLN-2, Lot NO: P112561-P2; PLN-3, Lot NO: P112561-P3; PLN-4, Lot NO: P112561-P4; PLN-5, Lot NO: P112561-P5) (Table S1). The purity of PLN 1-5 was more than 98% as determined by HPLC (Supplementary material). Human PLK1 and NRP1 proteins were purchased from Abcam (Cambridge, MA, USA).
(§3) Cells were seeded in 96-well plates (5 × 10^4 cells/well) and incubated overnight. Cells were incubated with different concentrations of PLN-5 at 37 °C for 72 h. After removal of the medium, MTT stock solution (5 mg/ml) was added and the incubation continued for 4 h. After centrifugation, the insoluble crystals were dissolved in dimethyl sulfoxide and gently shaken for 15 min. Finally, absorbance was measured at 570 nm using a microplate reader. The IC50 were calculated using Prism 6.0 software.

A549 cells = experiment: MTT assay A549; assay type: cell-based; settings: Homo sapiens, 72 h treatment, mean ± SD, n = 3
Description: as §2, §3

A427 cells = experiment: MTT assay A427; assay type: cell-based; settings: Homo sapiens, A-427, 72 h treatment, mean ± SD, n = 3
Description: as §2, §3

BEAS-2B cells = experiment: MTT assay BEAS-2B; assay type: cell-based, human; settings: normal lung cells, 72 h treatment, n = 3
Description: as §2, §3

T1 sequence (P53350 whole entry): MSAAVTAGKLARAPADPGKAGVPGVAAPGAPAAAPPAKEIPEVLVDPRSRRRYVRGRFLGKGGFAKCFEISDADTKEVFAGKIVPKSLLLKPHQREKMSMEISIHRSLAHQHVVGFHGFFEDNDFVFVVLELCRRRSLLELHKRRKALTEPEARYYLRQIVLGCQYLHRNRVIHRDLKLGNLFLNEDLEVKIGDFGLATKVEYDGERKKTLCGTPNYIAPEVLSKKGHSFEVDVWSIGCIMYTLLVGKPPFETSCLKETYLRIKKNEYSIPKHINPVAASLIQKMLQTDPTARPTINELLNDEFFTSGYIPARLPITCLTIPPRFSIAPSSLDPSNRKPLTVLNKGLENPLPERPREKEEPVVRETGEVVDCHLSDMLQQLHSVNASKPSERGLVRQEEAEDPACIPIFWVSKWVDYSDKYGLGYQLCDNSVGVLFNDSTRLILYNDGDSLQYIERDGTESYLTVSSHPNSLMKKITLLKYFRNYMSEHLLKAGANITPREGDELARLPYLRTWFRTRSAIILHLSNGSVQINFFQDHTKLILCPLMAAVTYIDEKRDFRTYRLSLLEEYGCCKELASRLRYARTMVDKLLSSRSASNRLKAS

Which “PLK1 (IC50, nM)” value (PLK1; mean ± SD, n = 3) does the source give for `NC(N)=NCCC[C@H](NC(=O)c1sccc1NS(=O)(=O)c1cccc2nsnc12)C(=O)O` [EG00229, reference compound] here?
The value was “no inhibition”.

And the IC50 (NRP1; mean ± SD, n = 3)?
Its IC50 is 640 ± 20.8 nM.

`CN1CCN(c2ccc(OC(F)(F)F)c(Nc3ncc4c(n3)-c3c(c(C(N)=O)nn3CCO)CC4)c2)CC1` [Onvansertib, onvansertib, reference compound] was tested. Which “NRP1 (IC50, nM)” value (NRP1; mean ± SD, n = 3) did it give?
The value was “no inhibition”.

For `Cc1ncc(CCCN(C)CC(=O)N[C@@H](CCCN=C(N)N)C(=O)O)cc1Nc1ncc2c(n1)-c1ccc(C#N)cc1NC(=O)C2` [PLN-1], which IC50 (PLK1; mean ± SD, n = 3) is on record?
Its IC50 is 8.12 ± 0.34 nM.

And the IC50 (NRP1; mean ± SD, n = 3)?
Its IC50 is 12.7 ± 0.81 nM.

Which IC50 (PLK1; mean ± SD, n = 3) does the source give for `NC(N)=NCCC[C@H](NC(=O)CCCCCc1cncc(Nc2ncc3c(n2)-c2ccc(Cl)cc2NC(=O)C3)c1)C(=O)O` [PLN-2] here?
The IC50 was 16.5 ± 2.86 nM.

What about the IC50 (NRP1; mean ± SD, n = 3) of the same compound?
Its IC50 is 24.3 ± 1.29 nM.

Which IC50 (PLK1; mean ± SD, n = 3) does the source give for `COc1ncc(Nc2ncc3c(n2)-c2ccc(Cl)cc2NC(=O)C3)cc1CCCCCC(=O)N[C@@H](CCCN=C(N)N)C(=O)O` [PLN-3] here?
Its IC50 is 11.4 ± 0.74 nM.

What about the IC50 (NRP1; mean ± SD, n = 3) of the same compound?
Its IC50 is 30.5 ± 2.55 nM.

Which results are given for `CCc1ccc2c(c1)NC(=O)Cc1cnc(Nc3cc(CCCN(C)CC(=O)N[C@@H](CCCN=C(N)N)C(=O)O)cnc3C)nc1-2` [PLN-4]?
IC50 (PLK1; mean ± SD, n = 3): 4.51 ± 0.26 nM; IC50 (NRP1; mean ± SD, n = 3): 7.83 ± 0.42 nM

With `Cc1ncc(CCCN(C)CC(=O)N[C@@H](CCCN=C(N)N)C(=O)O)cc1Nc1ncc2c(n1)-c1ccc(Cl)cc1NC(=S)C2` [PLN-5] as the compound, how does the IC50 (PLK1; mean ± SD, n = 3) read?
Its IC50 is 2.07 ± 0.13 nM.

And the “PLK1 potency relative to onvansertib” value (PLK1; ratio of IC50 values vs positive control onvansertib)?
The value was “approximately 9 fold”.

And the IC50 (NRP1; mean ± SD, n = 3)?
The IC50 was 5.15 ± 0.24 nM.

And the “NRP1 potency relative to EG00229” value (NRP1; ratio of IC50 values vs positive control EG00229)?
Its value is ~124 fold.

What about the IC50 (PLK2) of the same compound?
Its IC50 is > 10000 nM.

And the IC50 (PLK3)?
Its IC50 is > 10 µM.

What about the IC50 (PLK4) of the same compound?
The IC50 was > 10000 nM.

And the IC50 (NRP2)?
Its IC50 is > 10 µM.

What about the “cell survival rate of NCI-H460 cells” value (NCI-H460 cells; 2 μM compound) of the same compound?
Its value is “lowest survival rate”.

And the IC50 (NCI-H460 cells; Homo sapiens, NCI-H460, 72 h treatment, MTT, mean ± SD, n = 3)?
The IC50 was 0.27 ± 0.02 µM.

And the “inhibition rate against NCI-H460 cells” value (NCI-H460 cells; MTT assay)?
The value was “more than 90%”.

What about the IC50 (A549 cells) of the same compound?
Its IC50 is 0.41 ± 0.03 µM.

And the IC50 (A427 cells)?
The IC50 was 0.33 ± 0.02 µM.

And the IC50 (BEAS-2B cells; Homo sapiens, BEAS-2B)?
The IC50 was > 10 µM.

And the “IC50 (μM) BEAS-2B” value (BEAS-2B cells)?
The value was “no significant inhibitory effect”.
